Biological target: skeletal myofibrils (myosin ATPase)
Test: Skeletal Myofibril ATPase Assay
Type: biochemical
Settings: Table 4A
Description: Example 12. Skeletal Myofibril ATPase Assay
Overview: Myosin ATPase activity is assessed by using a coupled reaction system, in which ADP generated by the myosin ATPase function is coupled to the disappearance of NADH through the pyruvate kinase/lactate dehydrogenase (PK-LDH) system. ATPase activity produces ADP, which is used as a substrate for PK to produce pyruvate and regenerate ATP. The pyruvate is then used as a substrate by LDH to oxidize NADH to NAD+. The rate of the reaction is monitored through the time-dependent disappearance of NADH using absorbance at 340 nm. Inhibition of ATPase activity by the assayed compounds is indicated by a reduced rate of NADH loss, relative to vehicle-treated controls, over the experimental time window. To assess the selectivity of the assayed compounds for skeletal myofibrils, the compounds are counter-screened in cardiac myofibrils.
Materials: The following stock solutions and reagents were used in the Skeletal Myofibril ATPase Assay:
Stock Solutions of pCa buffer. Combine PIPES, CaCl2, and EGTA solutions with 70 mL of water. Adjust pH to 7.0 and bring final volume to 100 mL.
Buffer A & Buffer B. Buffers were stored on ice until use.
Skeletal Myofibril ATPase Assay Procedure: BSA, ATP, NADH, PEP, and DTT solutions were thawed at room temperature, then transferred to ice. Pellet-frozen myofibrils were transferred with approximately twice the required volume into a sufficiently large tube and capped. Myofibrils were thawed by rolling in a water bath for approximately 15 min at room temperature and cooled on ice. Buffers A and B were prepared by adjusting volumes as necessary for required number of wells and stored on ice. 0.5 μL of the compounds to be assayed were added into wells. 25 μL of Buffer A was dispensed into the wells, followed by 25 μL of Buffer B. The wells were measured for absorbance at 340 nm, using a kinetic protocol in which the wells are read every 1.5-2 min for 45 min. The slope of the data was approximated by subtracting the minimum absorbance value from the maximum value for each well. This was accomplished either in the SoftMax Pro software or in a spreadsheet program such as Excel. Using GraphPad Prism 8.0, the data was normalized by assigning a value of 100% to the 1% DMSO vehicle wells. Typically, a normalized 0% value was simply assigned to a (Max−Min) value of 0. The normalized data was fit to a Four Parameter Logistic sigmoidal equation, constraining the bottom to be 0 or greater. Compounds of Table 1, 2, and 3 were tested and results of the assay appear in Tables 4a-4c. A=IC50 is less than or equal to 10 μM; B═IC50 is greater than 10 μM and less than 100 μM; C═IC50 is greater than 100 μM.

IC50 | SMILES
< 10 µM | CCNC(=O)Cn1nc(-c2ccc(NC34CC(C3)C4)nc2)ccc1=O [Compound I-36, 2-[3-[6-([bicyclo[1.1.1]pentan-1-yl]amino)pyridin-3-yl]-6-oxo-1,6-dihydropyridazin-1-yl]-N-ethylacetamide]
10 to 100 µM | O=C(Cn1nc(-c2ccc(NC34CC(C3)C4)nc2)ccc1=O)N1CCC1 [Compound I-39, 2-(2-(azetidin-1-yl)-2-oxoethyl)-6-(6-(bicyclo[1.1.1]pentan-1-ylamino)pyridin-3-yl)pyridazin-3(2H)-one]
10 to 100 µM | CCNC(=O)Cn1nc(-c2ccc(NC34CCC(CC3)CC4)nc2)ccc1=O [Compound I-41, 2-(3-(6-(bicyclo[2.2.2]octan-1-ylamino)pyridin-3-yl)-6-oxopyridazin-1(6H)-yl)-N-ethylacetamide]
< 10 µM | CCNC(=O)Cn1nc(-c2ccc(NC3COC3)nc2)ccc1=O [Compound I-44, N-ethyl-2-(3-(6-(oxetan-3-ylamino)pyridin-3-yl)-6-oxopyridazin-1(6H)-yl)acetamide]
< 10 µM | O=C(Cn1nc(-c2ccc(NC34CC(C3)C4)nc2)ccc1=O)NC12CC(C1)C2 [Compound I-46, N-(bicyclo[1.1.1]pentan-1-yl)-2-(3-(6-(bicyclo[1.1.1]pentan-1-ylamino)pyridin-3-yl)-6-oxopyridazin-1(6H)-yl)acetamide]
< 10 µM | CCNC(=O)Cn1nc(-c2ccc(NC)nc2)ccc1=O [Compound I-47, N-ethyl-2-(3-(6-(methylamino)pyridin-3-yl)-6-oxopyridazin-1(6H)-yl)acetamide]
< 10 µM | O=C(Cn1nc(-c2cnc(NC34CC(C3)C4)nc2)ccc1=O)NC1CCC1 [Compound I-50, 2-(3-(2-(bicyclo[1.1.1]pentan-1-ylamino)pyrimidin-5-yl)-6-oxopyridazin-1(6H)-yl)-N-cyclobutylacetamide]
< 10 µM | O=C(Cn1nc(-c2ccc(NC3CCC3)nc2)ccc1=O)NC1CCC1 [Compound I-52, N-cyclobutyl-2-(3-(6-(cyclobutylamino)pyridin-3-yl)-6-oxopyridazin-1(6H)-yl)acetamide]
< 10 µM | O=C(Cn1nc(-c2ccc(NC34CC(C3)C4)nc2)ccc1=O)NC1CCC1 [Compound I-54, 2-(3-(6-(bicyclo[1.1.1]pentan-1-ylamino)pyridin-3-yl)-6-oxopyridazin-1(6H)-yl)-N-cyclobutylacetamide]
10 to 100 µM | CCNC(=O)Cn1nc(-c2ccc(NC34CC(CO)(C3)C4)nc2)ccc1=O [Compound I-58, N-ethyl-2-(3-(6-((3-(hydroxymethyl)bicyclo[1.1.1]pentan-1-yl)amino)pyridin-3-yl)-6-oxopyridazin-1(6H)-yl)acetamide]
< 10 µM | CCNC(=O)Cn1nc(-c2cnc(NC34CC(C3)C4)nc2)ccc1=O [Compound I-59, 2-[3-(2-[bicyclo[1.1.1]pentan-1-ylamino]pyrimidin-5-yl)-6-oxopyridazin-1-yl]-N-ethylacetamide]
< 10 µM | CCNC(=O)Cn1nc(-c2ccc(NC34CC(C)(C3)C4)nc2)ccc1=O [Compound I-60, N-ethyl-2-(3-(6-((3-methylbicyclo [1.1.1]pentan-1-yl)amino)pyridin-3-yl)-6-oxopyridazin-1(6H)-yl)acetamide]
< 10 µM | CCNC(=O)Cn1nc(-c2ccc(NC3CCC3)nc2)ccc1=O [Compound I-62, 2-(3-(6-(cyclobutylamino)pyridin-3-yl)-6-oxopyridazin-1(6H)-yl)-N-ethylacetamide]
< 10 µM | CCNC(=O)Cn1nc(-c2ccc(N(C)C34CC(C3)C4)nc2)ccc1=O [Compound I-64, 2-(3-(6-(bicyclo[1.1.1]pentan-1-yl(methyl)amino)pyridin-3-yl)-6-oxopyridazin-1(6H)-yl)-N-ethylacetamide]

Continued, molecule first:

SMILES | IC50
CCNC(=O)Cn1nc(-c2ccc(CC(F)(F)F)nc2)ccc1=O [Compound I-37, N-ethyl-2-(6-oxo-3-(6-(2,2,2-trifluoroethyl)pyridin-3-yl)pyridazin-1(6H)-yl)acetamide] | 10 to 100 µM
CCNC(=O)Cn1nc(-c2ccc(N3CC(COC(F)(F)F)C3)nc2)ccc1=O [Compound I-40, N-ethyl-2-(6-oxo-3-(6-(3-((trifluoromethoxy)methyl)azetidin-1-yl)pyridin-3-yl)pyridazin-1(6H)-yl)acetamide] | 10 to 100 µM
CCNC(=O)Cn1nc(-c2cnc(NC34CC(O)(C3)C4)nc2)ccc1=O [Compound I-42, N-ethyl-2-(3-(2-((3-hydroxybicyclo[1.1.1]pentan-1-yl)amino)pyrimidin-5-yl)-6-oxopyridazin-1(6H)-yl)acetamide] | 10 to 100 µM
CCNC(=O)Cn1nc(-c2ccc(N3CC4CC(C3)O4)nc2)ccc1=O [Compound I-43, 2-(3-(6-(6-oxa-3-azabicyclo[3.1.1]heptan-3-yl)pyridin-3-yl)-6-oxopyridazin-1(6H)-yl)-N-ethylacetamide] | 10 to 100 µM
CCNC(=O)Cn1nc(-c2ccc(NC3CCOCC3)nc2)ccc1=O [Compound I-45, N-ethyl-2-(6-oxo-3-(6-((tetrahydro-2H-pyran-4-yl)amino)pyridin-3-yl)pyridazin-1(6H)-yl)acetamide] | > 100 µM
CCNC(=O)Cn1nc(-c2ccc(N3CCCC3C(F)(F)F)nc2)ccc1=O (stereo not shown) [Compound I-48, N-ethyl-2-(6-oxo-3-(6-(2-(trifluoromethyl)pyrrolidin-1-yl)pyridin-3-yl)pyridazin-1(6H)-yl)acetamide] | < 10 µM
CCNC(=O)Cn1nc(-c2cnc(OCCOC(F)(F)F)nc2)ccc1=O [Compound I-49, N-ethyl-2-(6-oxo-3-(2-(2-(trifluoromethoxy)ethoxy)pyrimidin-5-yl)pyridazin-1(6H)-yl)acetamide] | 10 to 100 µM
O=C(Cn1nc(-c2cnc(OCC(F)(F)F)nc2)ccc1=O)NC12CC(C1)C2 [Compound I-51, N-(bicyclo[1.1.1]pentan-1-yl)-2-(6-oxo-3-(2-(2,2,2-trifluoroethoxy)pyrimidin-5-yl)pyridazin-1(6H)-yl)acetamide] | < 10 µM
CCNC(=O)Cn1nc(-c2ccc(NC(C)(C)C)nc2)ccc1=O [Compound I-53, 2-(3-(6-(tert-butylamino)pyridin-3-yl)-6-oxopyridazin-1(6H)-yl)-N-ethylacetamide] | < 10 µM
CCNC(=O)Cn1nc(-c2ccc(N3CC(OC(F)F)C3)nc2)ccc1=O [Compound I-55, 2-(3-(6-(3-(difluoromethoxy)azetidin-1-yl)pyridin-3-yl)-6-oxopyridazin-1(6H)-yl)-N-ethylacetamide] | 10 to 100 µM
O=C(Cn1nc(-c2ccc(OCC(F)(F)F)nc2)ccc1=O)NC1CCC1 [Compound I-56, N-cyclobutyl-2-(6-oxo-3-(6-(2,2,2-trifluoroethoxy)pyridin-3-yl)pyridazin-1(6H)-yl)acetamide] | < 10 µM
CCNC(=O)Cn1nc(-c2cnc(NC34CC(F)(C3)C4)nc2)ccc1=O [Compound I-57, N-ethyl-2-(3-(2-((3-fluorobicyclo[1.1.1]pentan-1-yl)amino)pyrimidin-5-yl)-6-oxopyridazin-1(6H)-yl)acetamide] | < 10 µM
CCNC(=O)Cn1nc(-c2ccc(N(C)C3CCC3)nc2)ccc1=O [Compound I-61, 2-(3-(6-(cyclobutyl(methyl)amino)pyridin-3-yl)-6-oxopyridazin-1(6H)-yl)-N-ethylacetamide] | < 10 µM
CCNC(=O)Cn1nc(-c2ccc(SC)nc2)ccc1=O [Compound I-63, N-ethyl-2-(3-(6-(methylthio)pyridin-3-yl)-6-oxopyridazin-1(6H)-yl)acetamide] | < 10 µM

Source: patent US20230293518A1 (Edgewise Therapeutics, Inc., priority 2020, published 2023)
